Laboratory results reported in patent US7241893B2, “Thiazolinone 2-substituted quinolines” (Hoffman-La Roche Inc., priority 2004, dated 2007).

Each compound was assayed against T1, recombinant human CDK1/Cyclin B complex (Homo sapiens, UniProt P06493) (assay: CDK1/Cyclin B kinase assay (FlashPlate or HTRF)). Conditions: Rb protein substrate, Ki=IC50/(1+[S]/Km).
T1 construct: made in house; host or cells: High Five insect cells (baculovirus) for CDK1/GST-cyclin B; E. coli M15 for the Rb substrate
Assay type: biochemical
Method: To determine inhibition of CDK1 activity, either FlashPlate™ (NEN™-Life Science Products) assay or HTRF assay was performed. Both types of kinase assays were carried out using recombinant human CDK1/Cyclin B complex. GST-cyclinB (GST-cycB) and CDK1 cDNA clones in baculovirus vectors were provided by Dr. W. Harper at the Baylor College of Medicine, Houston, Tex. Proteins were co-expressed in High Five™ insect cells and the complex was purified on glutathione Sepharose resin (Pharmacia, Piscataway, N.J.) as previously described (Harper, J. W. et al. Cell 1993, 75, 805–816). A 6x-Histidine tagged truncated form of retinoblastoma (Rb) protein (amino acid 386–928) was used as the substrate for the CDK1/Cyclin B assay (the expression plasmid was provided by Dr. Veronica Sullivan, Department of Molecular Virology, Roche Research Centre, Welwyn Garden City, United Kingdom). The Rb protein is a natural substrate for phosphorylation by CDK1 (see Herwig and Strauss Eur. J. Biochem. Vol. 246 (1997) pp. 581–601 and the references cited therein). The expression of the 62 Kd protein was under the control of an IPTG inducible promoter in an M15 E. coli strain. Cells were lysed by sonication and purification was carried out by binding lysates at pH 8.0 to a Ni-chelated agarose column pretreated with 1 mM imidazole. The resin was then washed several times with incrementally decreasing pH buffers to pH 6.0, and eluted with 500 mM imidazole. Eluted protein was dialysed against 20 mM HEPES pH 7.5, 30% glycerol, 200 mM NaCl, and 1 mM DTT. Purified Rb fusion protein stocks were quantitated for protein concentration, aliquoted, and stored at −70° C.
For the FlashPlate kinase assay, 96-well FlashPlates were coated with Rb protein at 10 μg/ml, using 100 μl per well. Plates were incubated at 4° C. overnight or at room temperature for 3 hours on a shaker. To control for nonspecific phosphorylation, one row of wells was coated with 100 μl/well coating buffer (20 mM HEPES, 0.2 M NaCl). Plates were then washed twice with wash buffer (0.01% Tween 20 in phosphate-buffered saline). Compounds to be tested (“test compounds”) were added to the wells at 5× final concentration. Reactions were initiated by immediate addition of 40 μl reaction mix (25 mM HEPES, 20 mM MgCl2, 0.002% Tween 20, 2 mM DTT, 1 [M ATP, 4 nM 33P-ATP) and a sufficient amount of enzyme to give counts that were at least 10-fold above background. Plates were incubated at room temperature on a shaker for 30 minutes. Plates were washed four times with the wash buffer, sealed, and counted on the TopCount scintillation counter (Packard Instrument Co., Downers Grove, Ill.]. The percent inhibition of Rb phosphorylation, which is a measure of the inhibition of CDK activity, was determined according to the following formula:
[formula] where “test compound” refers to the average counts per minute of the test duplicates, “nonspecific” refers to the average counts per minute when no CDK1/Cyclin B, etc., was added, and “total” refers to the average counts per minute when no compound was added. […] The value of the inhibitor constant Ki is calculated by the following: Ki=IC50/(1+[S]/Km), where [S] is the ATP concentration and Km is Michaelis constant.
The Homogeneous Time Resolved Fluorescence (HTRF) kinase assay was carried out in 96-well polypropylene plates (BD Biosciences, Bedford, Mass.). […]

T1 sequence (P06493 whole entry): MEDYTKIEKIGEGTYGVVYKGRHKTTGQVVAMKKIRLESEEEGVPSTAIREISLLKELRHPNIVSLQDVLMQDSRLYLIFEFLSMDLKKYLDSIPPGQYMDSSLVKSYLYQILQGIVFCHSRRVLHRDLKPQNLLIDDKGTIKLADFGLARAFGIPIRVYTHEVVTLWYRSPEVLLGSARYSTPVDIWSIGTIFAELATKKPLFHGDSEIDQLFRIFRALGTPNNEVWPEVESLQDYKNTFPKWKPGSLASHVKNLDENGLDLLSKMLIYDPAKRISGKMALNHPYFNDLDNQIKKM
T1 sequence (P14635 whole entry partner): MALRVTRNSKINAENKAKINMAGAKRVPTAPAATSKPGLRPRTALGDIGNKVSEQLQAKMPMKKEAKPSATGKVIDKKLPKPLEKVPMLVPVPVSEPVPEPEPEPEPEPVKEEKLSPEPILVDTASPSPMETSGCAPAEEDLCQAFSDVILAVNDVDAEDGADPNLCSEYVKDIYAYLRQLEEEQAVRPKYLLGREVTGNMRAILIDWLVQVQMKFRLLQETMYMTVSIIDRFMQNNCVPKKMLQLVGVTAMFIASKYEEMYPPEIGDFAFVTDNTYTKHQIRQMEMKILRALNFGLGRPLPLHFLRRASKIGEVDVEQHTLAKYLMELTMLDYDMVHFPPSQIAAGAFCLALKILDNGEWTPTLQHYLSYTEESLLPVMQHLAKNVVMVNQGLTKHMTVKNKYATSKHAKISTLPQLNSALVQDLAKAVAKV

| Ki | Structure (SMILES) |
| --- | --- |
| 0.085 µM | CCOc1cc(NC(C)=O)nc2ccc(/C=C3\SC(NC4CC4)=NC3=O)cc12 [Example 5, N-[6-(2-Cyclopropylamino-4-oxo-4H-thiazol-5-ylidenemethyl)-4-ethoxy-quinolin-2-yl]-acetamide] |
| 0.097 µM | CCOc1cc(NC(C)=O)nc2ccc(/C=C3\SC(N)=NC3=O)cc12 [Example 7, N-(6-{2-Amino-4-oxo-4H-thiazol-5-ylidenemethyl}-4-ethoxy-quinolin-2-yl)-acetamide] |
| 3.24 µM | CCOc1cc(NC(C)=O)nc2ccc(/C=C3\SC(NCC4COCCO4)=NC3=O)cc12 (centres unmarked) [Example 9] |

Second part, the compound before the results:

| Structure (SMILES) | Ki |
| --- | --- |
| Nc1ccc2cc(/C=C3\SC(N[C@@H]4C[C@H]4c4ccccc4)=NC3=O)ccc2n1 [Example 1, 5-[1-(2-Amino-quinolin-6-yl)-meth-(Z)-ylidene]-2-((1R,2S)-2-phenyl-cyclopropylamino)-thiazol-4-one; compound with trifluoro-acetic acid] | 0.023 µM |
| CCOc1cc(N)nc2ccc(/C=C3\SC(N)=NC3=O)cc12 [Example 3, 2-Amino-5-(2-amino-4-ethoxy-quinolin-6-ylmethylene)-thiazol-4-one] | 0.03 µM |
